Values of other authors as cited in patent publication US10783985B2, “Physics-based computational methods for predicting compound solubility” (Schrödinger, LLC, priority 2015, dated 2020).
One block for each compound: values may come before it.

Conditions: for Expt. Solubility: Table 1, experimentally determined
[1] = experimental, Ilevbare and Taylor 2013

Structure (SMILES): CC(=O)Nc1ccc(O)cc1 [acetaminophen]
- aqueous solubility (experimental, NIH Pubchem database, printed conversion of the mg/L value): ~36,000 μM

Structure (SMILES): Clc1ccccc1C(c1ccccc1)(c1ccccc1)n1ccnc1 [clotrimazole]
- Expt. Solubility: 1.16 µM

Structure (SMILES): CN1CCN(C2=Nc3cc(Cl)ccc3Nc3ccccc32)CC1 [clozapine]
- Expt. Solubility: 26.93 µM

The remaining lines, values ahead:

- "amorphous" solubility [1]: 22.1 µM
- "equilibrium" solubility [1]: 2.5 µM
- solubility class (BCS), experimental data (felodipine comparison data): low solubility (BCS Class II/IV)
Structure (SMILES): CCOC(=O)C1=C(C)NC(C)=C(C(=O)OC)C1c1cccc(Cl)c1Cl (stereo not shown) [felodipine]

- Expt. Solubility: 8.38 µM
Structure (SMILES): COc1ccc2c(c1)c(CC(=O)O)c(C)n2C(=O)c1ccc(Cl)cc1 [indomethacin]
